Assay results taken from ChEMBL document CHEMBL4609983, “Pan-specific and partially selective dye-labeled peptidic inhibitors of the polycomb paralog proteins” (Bioorg Med Chem, 2020).
pIC50, pKd: −log10 of the molar value. Non-standard residues stand in square brackets, D forms with d. Residues, ends and D or L forms follow the SMILES beside them. *: point of attachment. X1 = O=C(O)c1cc(NC(=S)*)ccc1-c1c2ccc(=O)cc-2oc2cc(O)ccc12; Lys(Me3) = C[N+](C)(C)CCCC[C@H](N)C(=O)O; Benzoyl(4-Br) = O=C(c1ccc(Br)cc1)*; Gly(cPent) = N[C@H](C(=O)O)C1CCCC1; Abu = CC[C@H](N)C(=O)O; βAla = NCCC(=O)O

Experiments:
[1] = target: T1, Chromobox protein homolog 8 (Homo sapiens, UniProt Q9HC52); assay: Binding affinity to CBX8 (unknown origin) assessed as dissociation constant by fluorescence polarization analysis
T1 sequence (Q9HC52 whole entry): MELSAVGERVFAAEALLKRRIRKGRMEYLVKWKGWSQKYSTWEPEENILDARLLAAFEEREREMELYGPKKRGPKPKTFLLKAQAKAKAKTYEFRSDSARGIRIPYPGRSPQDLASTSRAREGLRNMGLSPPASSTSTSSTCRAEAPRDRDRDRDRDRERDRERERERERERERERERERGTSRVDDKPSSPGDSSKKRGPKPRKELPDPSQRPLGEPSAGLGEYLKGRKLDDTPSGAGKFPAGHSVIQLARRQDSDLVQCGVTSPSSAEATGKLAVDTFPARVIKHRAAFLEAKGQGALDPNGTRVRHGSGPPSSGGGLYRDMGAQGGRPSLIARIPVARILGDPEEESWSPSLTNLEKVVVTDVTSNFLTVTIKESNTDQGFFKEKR

[2] = target: T2, Chromobox protein homolog 6 (Homo sapiens, UniProt O95503); assay: Binding affinity to CBX6 (unknown origin) assessed as dissociation constant by fluorescence polarization analysis
T2 sequence (O95503 whole entry): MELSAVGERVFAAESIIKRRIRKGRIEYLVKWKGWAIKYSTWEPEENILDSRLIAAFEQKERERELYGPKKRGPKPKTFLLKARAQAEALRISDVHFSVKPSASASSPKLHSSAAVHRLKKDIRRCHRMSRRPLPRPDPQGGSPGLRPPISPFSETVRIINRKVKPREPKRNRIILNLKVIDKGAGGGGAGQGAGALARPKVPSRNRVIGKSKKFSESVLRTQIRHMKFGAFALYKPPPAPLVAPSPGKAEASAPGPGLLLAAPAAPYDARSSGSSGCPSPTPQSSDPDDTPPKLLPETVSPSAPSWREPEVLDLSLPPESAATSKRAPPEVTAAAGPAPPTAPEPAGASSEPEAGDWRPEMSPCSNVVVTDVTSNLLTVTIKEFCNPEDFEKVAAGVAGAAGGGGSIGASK

[3] = target: Chromobox protein homolog 1 (Homo sapiens, UniProt P83916); assay: Binding affinity to CBX1 (unknown origin) assessed as dissociation constant by fluorescence polarization analysis
Chromobox protein homolog 1, sequence (P83916 whole entry): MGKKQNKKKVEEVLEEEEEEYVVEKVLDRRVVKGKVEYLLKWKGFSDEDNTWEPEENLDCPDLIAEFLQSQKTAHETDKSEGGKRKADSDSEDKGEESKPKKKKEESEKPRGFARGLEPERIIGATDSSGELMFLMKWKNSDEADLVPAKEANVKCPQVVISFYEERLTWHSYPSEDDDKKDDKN

[4] = target: T3, Chromobox protein homolog 2 (Homo sapiens, UniProt Q14781); assay: Binding affinity to CBX2 (unknown origin) assessed as dissociation constant by fluorescence polarization analysis
T3 sequence (Q14781 whole entry): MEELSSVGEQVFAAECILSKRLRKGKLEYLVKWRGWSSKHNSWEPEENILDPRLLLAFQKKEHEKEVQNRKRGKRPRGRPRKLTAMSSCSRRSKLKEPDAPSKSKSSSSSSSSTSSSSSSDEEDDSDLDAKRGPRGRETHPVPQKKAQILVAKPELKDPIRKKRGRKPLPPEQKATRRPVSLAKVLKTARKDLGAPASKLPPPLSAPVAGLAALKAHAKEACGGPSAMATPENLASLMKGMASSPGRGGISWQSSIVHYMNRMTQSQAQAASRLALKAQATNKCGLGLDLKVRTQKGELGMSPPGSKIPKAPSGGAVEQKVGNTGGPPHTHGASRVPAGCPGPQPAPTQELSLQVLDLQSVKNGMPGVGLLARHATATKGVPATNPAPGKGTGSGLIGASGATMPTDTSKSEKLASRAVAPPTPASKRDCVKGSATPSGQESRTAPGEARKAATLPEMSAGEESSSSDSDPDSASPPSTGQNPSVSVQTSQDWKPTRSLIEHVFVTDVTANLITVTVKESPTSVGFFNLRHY

[5] = target: T4, Chromobox protein homolog 7 (Homo sapiens, UniProt O95931); assay: Binding affinity to CBX7 (unknown origin) assessed as dissociation constant by fluorescence polarization analysis
T4 sequence (O95931 whole entry): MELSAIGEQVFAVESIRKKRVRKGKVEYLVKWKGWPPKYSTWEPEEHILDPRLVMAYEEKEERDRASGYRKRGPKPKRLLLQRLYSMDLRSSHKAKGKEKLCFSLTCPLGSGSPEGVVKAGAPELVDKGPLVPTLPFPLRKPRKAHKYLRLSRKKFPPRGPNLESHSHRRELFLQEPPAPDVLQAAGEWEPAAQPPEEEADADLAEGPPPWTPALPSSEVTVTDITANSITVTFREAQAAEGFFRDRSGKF

[6] = target: T5, E3 SUMO-protein ligase CBX4 (Homo sapiens, UniProt O00257); assay: Binding affinity to CBX4 (unknown origin) assessed as dissociation constant by fluorescence polarization analysis
T5 sequence (O00257 whole entry): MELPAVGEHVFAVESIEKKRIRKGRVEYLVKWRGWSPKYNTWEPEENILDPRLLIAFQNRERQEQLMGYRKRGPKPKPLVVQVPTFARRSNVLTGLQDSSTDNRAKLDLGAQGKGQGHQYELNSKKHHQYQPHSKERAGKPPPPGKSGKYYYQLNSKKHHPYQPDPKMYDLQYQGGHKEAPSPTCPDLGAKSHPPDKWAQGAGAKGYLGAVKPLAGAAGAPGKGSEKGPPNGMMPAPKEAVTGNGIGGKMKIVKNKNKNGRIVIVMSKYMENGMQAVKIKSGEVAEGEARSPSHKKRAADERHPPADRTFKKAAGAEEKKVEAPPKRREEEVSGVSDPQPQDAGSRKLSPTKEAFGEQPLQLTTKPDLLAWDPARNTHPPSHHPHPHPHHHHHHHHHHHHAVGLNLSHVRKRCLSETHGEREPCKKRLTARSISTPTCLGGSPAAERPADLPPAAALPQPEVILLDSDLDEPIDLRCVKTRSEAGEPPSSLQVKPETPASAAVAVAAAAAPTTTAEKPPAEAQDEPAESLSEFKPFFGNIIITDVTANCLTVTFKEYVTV

Homo sapiens [7] = species on record: Homo sapiens; assay: Selectivity ratio of Kd for CBX6 (unknown origin) to Kd for CBX8 (unknown origin)
Homo sapiens [8] = species on record: Homo sapiens; assay: Selectivity ratio of Kd for CBX4 (unknown origin) to Kd for CBX8 (unknown origin)
Homo sapiens [9] = species on record: Homo sapiens; assay: Selectivity ratio of Kd for CBX1 (unknown origin) to Kd for CBX8 (unknown origin)
Homo sapiens [10] = species on record: Homo sapiens; assay: Selectivity ratio of Kd for CBX2 (unknown origin) to Kd for CBX8 (unknown origin)
Homo sapiens [11] = species on record: Homo sapiens; assay: Selectivity ratio of Kd for CBX7 (unknown origin) to Kd for CBX8 (unknown origin)
[12] = target: T4, Chromobox protein homolog 7; assay: Inhibition of CBX7 (unknown origin) assessed as […] by competitive FP assay
[13] = target: T1, Chromobox protein homolog 8; assay: Inhibition of CBX8 (unknown origin) assessed as […] by competitive FP assay
[14] = target: T2, Chromobox protein homolog 6; assay: Inhibition of CBX6 (unknown origin) assessed as […] by competitive FP assay
TOV21G = assay: Decrease in cell viability in human TOV21G cells by MTT assay; type: cell-based
[15] = Drug uptake in cytoplasm of human PC3 cells by live cell imaging analysis; type: ADME, cell-based; conditions: pc-3
[16] = Drug uptake in nucleus of human TOV21G cells by live cell imaging analysis; type: ADME, cell-based
[17] = Drug uptake in human TOV21G cells assessed as endosomal entrapment by measuring characteristic punctate dots in the cytoplasm at 10 uM by cell imaging analysis; type: ADME, cell-based
[18] = Drug uptake in human PC3 cells assessed as endosomal entrapment by measuring characteristic punctate dots in the cytoplasm at 10 uM by cell imaging analysis; type: ADME, cell-based; conditions: pc-3, 10 µM
[19] = Drug uptake in nucleus of human PC3 cells by live cell imaging analysis; type: ADME, cell-based; conditions: pc-3
[20] = Drug uptake in cytoplasm of human TOV21G cells by live cell imaging analysis; type: ADME, cell-based

Row | Compound | pKd [1] | pKd [2] | pKd [3] | pKd [4] | pKd [5] | pKd [6] | Activity (TOV21G) | also measured
1 | CC(C)C[C@H](NC(=O)[C@H](C)NC(=O)[C@H](Cc1ccccc1)NC(=O)CCNC(=S)Nc1ccc(-c2c3ccc(=O)cc-3oc3cc(O)ccc23)c(C(=O)O)c1)C(=O)N[C@@H](CCCC[N+](C)(C)C)C(=O)N[C@@H](CO)C(N)=O ({X1-βAla}-FAL[Lys(Me3)]S-NH2) | 5.35 | 6.05 | 5.60 | 5.96 | 6.15 | 6.10 | – | –
2 | CC(C)C[C@H](NC(=O)[C@H](CO)NC(=O)[C@H](CCCC[N+](C)(C)C)NC(=O)[C@H](Cc1ccc(O)cc1)NC(=O)[C@H](C)NC(=O)[C@H](Cc1ccccc1)NC(=O)c1ccc(Br)cc1)C(N)=O ({Benzoyl(4-Br)}-FAY[Lys(Me3)]SL-NH2) | – | – | – | – | – | – | Non-Toxic | pIC50 [12]: 5.96; pIC50 [13]: 4.72; pIC50 [14]: 4.89

More lines, main results first:

Row | pKd [1] | pKd [2] | pKd [3] | pKd [4] | pKd [5] | pKd [6] | Compound | Activity (TOV21G) | also measured
3 | 6.92 | 6.46 | 5.49 | 6.41 | 6.80 | 6.22 | CC[C@H](NC(=O)[C@H](Cc1ccccc1)NC(=O)c1ccc(Br)cc1)C(=O)N[C@H](C(=O)N[C@@H](CCCC[N+](C)(C)C)C(=O)N[C@@H](CO)C(=O)N[C@@H](CCC(=O)O)C(=O)N[C@@H](CCCCNC(=S)Nc1ccc(-c2c3ccc(=O)cc-3oc3cc(O)ccc23)c(C(=O)O)c1)C(N)=O)C1CCCC1 ({Benzoyl(4-Br)}-F[Abu][Gly(cPent)][Lys(Me3)]SEK(X1)-NH2) | – | Selectivity ratio (Homo sapiens [7]): 3; Selectivity ratio (Homo sapiens [8]): 5; Selectivity ratio (Homo sapiens [9]): 26; Selectivity ratio (Homo sapiens [10]): 3; Selectivity ratio (Homo sapiens [11]): 2
4 | 6.05 | 7.11 | 5.76 | – | 7.96 | – | CC(C)C[C@H](NC(=O)[C@H](CO)NC(=O)[C@H](CCCC[N+](C)(C)C)NC(=O)[C@H](Cc1ccc(O)cc1)NC(=O)[C@H](C)NC(=O)[C@H](Cc1ccccc1)NC(=O)c1ccc(Br)cc1)C(=O)N[C@@H](CCCCNC(=S)Nc1ccc(-c2c3ccc(=O)cc-3oc3cc(O)ccc23)c(C(=O)O)c1)C(N)=O ({Benzoyl(4-Br)}-FAY[Lys(Me3)]SLK(X1)-NH2) | – | –
5 | 6.20 | 7.33 | 5.32 | – | 7.92 | – | C[C@H](NC(=O)[C@H](Cc1ccccc1)NC(=O)c1ccc(Br)cc1)C(=O)N[C@@H](Cc1ccc(O)cc1)C(=O)N[C@@H](CCCC[N+](C)(C)C)C(=O)N[C@@H](CO)C(=O)N[C@@H](CCC(=O)O)C(=O)N[C@@H](CCCCNC(=S)Nc1ccc(-c2c3ccc(=O)cc-3oc3cc(O)ccc23)c(C(=O)O)c1)C(N)=O ({Benzoyl(4-Br)}-FAY[Lys(Me3)]SEK(X1)-NH2) | Toxic | Drug uptake [15]: Not Active; Drug uptake [16]: Not Active; Drug uptake [17]: Active; Drug uptake [18]: Active; Drug uptake [19]: Not Active; Drug uptake [20]: Not Active
